Values quoted from earlier work, collected in publication PMC7248880, “Preclinical Incorporation Dosimetry of [^18F]FACH—A Novel ^18F-Labeled MCT1/MCT4 Lactate Transporter Inhibitor for Imaging Cancer Metabolism with PET” (Molecules, 2020).

What was measured:
[1] = piglet biokinetic data; cited from earlier work
MCT4 = test system: MCT4; parameters: method as in PMID 31017677, PMID 31017677; settings: cited from earlier work
MCT1 = test system: MCT1; parameters: method as in PMID 31017677, PMID 31017677; settings: cited from earlier work

[18F]c1ccc(C2CC3CCCC2N3)cn1 (single isomer, unassigned; (+)) [(+)-[^18F]flubatine]
ED, Preclinical [1]: 14.3 μSv/MBq

[18F]CC[C@H]1OC2(CCN(Cc3ccccc3)CC2)c2ccccc21 [(R)-(+)-[^18F]fluspidine]
ED, Preclinical [1]: 14.0 μSv/MBq

FCC[C@@H]1OC2(CCN(Cc3ccccc3)CC2)c2ccccc21 [(S)-(−)-[^18F]fluspidine]
ED, Preclinical [1]: 12.9 μSv/MBq

[18F]c1ccc([C@@H]2C[C@H]3CCC[C@@H]2N3)cn1 [(−)-[^18F]flubatine]
ED, Preclinical [1]: 14.7 μSv/MBq

CCCN(CCCF)c1ccc(/C=C(\C#N)C(=O)O)c(OC)c1 [FACH]
IC50 (MCT4): 6.5 nM | IC50 (MCT1): 11 nM

O=S1(=O)c2ccc([18F])cc2-c2ccc(N3CCN4CCC3CC4)cc21 [[^18F]DBT10]
ED, Preclinical [1]: 13.7 μSv/MBq
